Source: patent publication US20250243488A1, “METHODS OF MODULATING PROGRANULIN EXPRESSION USING ANTISENSE OLIGONUCLEOTIDES TARGETING REGULATORY RNAS” (Camp4 Therapeutics Corporation, priority 2022, published 2025)
Oligonucleotides are written 5' to 3', each unit as a sugar letter and its base; * is a phosphorothioate linkage, no mark a phosphodiester; rarer units and linkages stand in square brackets, end groups in braces. Plain capitals give the bases only. e = 2'-O-(2-methoxyethyl) (MOE); l = locked nucleic acid (LNA); [5mC] = 5-methylcytosine; d = 2'-deoxy (DNA)

Tested on: GRN mRNA
Test: GRN mRNA qPCR in SK-N-AS cells transfected with ASOs
Assay type: cell-based, human
Conditions: SK-N-AS; for hit identification (GRN mRNA dose escalation): 3.75 nM to 120 nM; for hGRN mRNA FC: Table 9, 48 hours post-transfection; for hGRN mRNA FC / 120 nM FC (GRN mRNA): 120 nM
Experimental: The best ASOs based on increased GRN mRNA fold-change were selected for further characterization in dose titration studies. Briefly, human neuroblastoma SK-N-AS cells were transfected with 20 to 160 nM of ASOs CO-3423, CO-3431, CO-3463, and CO-3503. A steric non-targeting control ASO (sNTC) was used as a control. Cells were collected for mRNA analysis after 48 hours and GRN mRNA quantified by qPCR. Housekeeping genes for normalization were GAPDH and PPIA, and mRNA fold change (FC) was normalized to sNTC.
36 additional ASOs were designed with different modifications and base walking around selected ASOs. The effect of increasing doses of these ASOs was assessed in the human neuroblastoma cell line SK-N-AS following transfection. Relative GRN mRNA levels in SK-N-AS cells after treatment was assessed 48-hours post-transfection, and data from exemplary ASOs is shown in FIGS. 5A and 5B.
Additional chemical modifications, including LNA, modifications were made to CO-3423. SK-N-AS cells were transfected with increasing concentrations of the LNA/PS modified ASOs and GRN mRNA quantified by qPCR. ASOs including different LNA modifications of CO-3423 had similar efficacy (i.e, similar increased GRN mRNA expression). GRN mRNA was normalized to the average fold-change of cells treated with two steric non-targeting control ASOs (CO-3772 and CO-1589 (sNTC1)).
The effect of ASO length on GRN gene expression modulation was also investigated. SK-N-AS cells were transfected with increasing concentrations of the longer ASOs and GRN mRNA quantified by qPCR. Increasing the length of CO-3423 increased the potency of the ASO, as shown in Table 4. mRNA was normalized to the average fold change of cells treated with two steric non-targeting control ASOs (CO-3772 and CO-1589 (sNTC1)).
To determine whether variations in the PO/PS internucleotide bond linkages impacted the ability of CO-3423 and CO-3431 to modulate gene expression, several modified ASOs based on these parent ASOs were prepared. SK-N-AS cells were transfected with increasing concentrations of the mixed PO/PS bond ASOs described in Tables 5 and 6, and GRN mRNA quantified by qPCR.
GRN mRNA fold-change after treatment with mixed PO/PS bond versions of CO-3423 is shown in Table 5. mRNA was normalized to the average fold change of cells treated with steric nontargeting controls (CO-3772, CO-1589 (sNTC1), and CO-1929 (sNTC3)).
GRN mRNA fold-change after treatment with mixed PO/PS bond versions of CO-3431 is shown in Table 6. mRNA was normalized as described above.
To further assess the effect of additional modifications on the ability of CO-3423 parent ASO to modulate GRN gene expression, additional LNA tiling and PO bond modifications were incorporated to CO-3423. SK-N-AS cells were transfected with increasing concentrations of the modified ASOs and GRN mRNA quantified by qPCR. CO-3423 was used for comparison. GRN mRNA was normalized to the average fold-change of cells treated with a steric non-targeting control ASO, CO-1589 (sNTC1).
To further assess the effect of modifications on the ability of CO-3463 parent ASO to modulate GRN gene expression, ASOs based on this ASOS incorporating additional LNA modifications were prepared and compared to […]. SK-N-AS cells were transfected with increasing concentrations of the ASOs and GRN mRNA quantified by qPCR. GRN mRNA was normalized to the average fold-change of cells treated with a steric non-targeting control ASO, CO-1589 (sNTC1).
68 additional ASOs were designed to target intergenic enhancers (eRNA). 48 hours post-transfection, the cells were collected for GRN mRNA analysis using qPCR. CO-1589, a steric nontargeting control ASO, was used as a control. GRN mRNA was normalized to cells treated with CO-1589.
The best hits from these ASOs were tested in a dose escalation study. Cells were incubated for 48 hours. Subsequently, the cells were collected for mRNA quantification via RT-qPCR. […]

[1] = Table 10, 48 hours, normalized to CO-1589
[2] = Table 6, normalized to CO-3772, CO-1589 and CO-1929
[3] = Table 12, normalized to CO-1589
[4] = Table 13, normalized to CO-1589
[5] = Table 3, normalized to CO-3772 and CO-1589 (sNTC1)
[6] = Table 8, normalized to CO-1589 (sNTC1)

CO-4619: ASO designed to target intergenic enhancers (eRNA) (antisense eT*eG*eA*eT*eA*eT*eA*eG*eA*eG*eA*eT*e[5mC]*eT*eG*e[5mC]*eA*eG*e[5mC]*e[5mC])
hit identification (GRN mRNA dose escalation) (48 hours): initial hits
hGRN mRNA FC (normalized to CO-1589): 1.3 FC
3.75 nM FC (GRN mRNA) [1]: 1.0 FC
7.5 nM FC (GRN mRNA) [1]: 1.1 FC
15 nM FC (GRN mRNA) [1]: 1.3 FC
30 nM FC (GRN mRNA) [1]: 1.2 FC
60 nM FC (GRN mRNA) [1]: 1.2 FC
120 nM FC (GRN mRNA) [1]: 1.6 FC

CO-4457: mixed PO/PS bond version of CO-3431 (antisense eA*eT*eTeGe[5mC]eAeGeTeGeAe[5mC]eGe[5mC]e[5mC]e[5mC]e[5mC]eGeT*eT*eA)
30 nM FC (GRN mRNA) [2]: 0.2 FC
60 nM FC (GRN mRNA) [2]: 0.1 FC
120 nM FC (GRN mRNA) [2]: 0.1 FC

CO-6411: ASO based on parent ASO CO-3462 (antisense eT*eA*eGeGeA*eG*eA*eA*eT*e[5mC]*eG*e[5mC]*eT*eT*eT*eGeGeG*eA*eG)
30 nM FC (GRN mRNA) [3]: 1.1 FC
60 nM FC (GRN mRNA) [3]: 1.4 FC
120 nM FC (GRN mRNA) [3]: 1.8 FC

CO-4650: ASO designed to target intergenic enhancers (eRNA) (antisense eT*eA*eA*eG*eA*e[5mC]*eT*eT*eT*e[5mC]*e[5mC]*eA*eG*e[5mC]*eA*eT*eG*eT*e[5mC]*e[5mC])
hGRN mRNA FC (normalized to CO-1589): 1.1 FC

CO-4628: ASO designed to target intergenic enhancers (eRNA) (antisense eT*e[5mC]*e[5mC]*eA*eT*eA*e[5mC]*eA*eA*e[5mC]*eT*eG*e[5mC]*eA*eG*eA*eG*eT*eG*eG)
hGRN mRNA FC (normalized to CO-1589): 1.0 FC

CO-6385: ASO based on parent ASO CO-3462 (antisense e[5mC]*eG*eG*eT*eA*eG*eG*eA*eG*eA*eA*eT*e[5mC]*eG*e[5mC]*eT*eT*eT*eG*eG)
30 nM FC (GRN mRNA) [3]: 1.1 FC
60 nM FC (GRN mRNA) [3]: 1.2 FC
120 nM FC (GRN mRNA) [3]: 1.3 FC

CO-4620: ASO designed to target intergenic enhancers (eRNA) (antisense eG*eT*e[5mC]*e[5mC]*eA*eG*e[5mC]*eA*e[5mC]*eG*e[5mC]*eT*e[5mC]*eT*e[5mC]*eA*eG*e[5mC]*eA*e[5mC])
hGRN mRNA FC (normalized to CO-1589): 1.0 FC

CO-6405: ASO based on parent ASO CO-3462 (antisense eG*eG*eT*eA*eG*dG*dA*eG*dA*dA*eT*d[5mC]*dG*e[5mC]*dT*dT*eT*dG*dG*eG*eA*eG*e[5mC]*eA)
30 nM FC (GRN mRNA) [3]: 1.1 FC
60 nM FC (GRN mRNA) [3]: 1.3 FC
120 nM FC (GRN mRNA) [3]: 1.3 FC

CO-6404: ASO based on parent ASO CO-3462 (antisense eG*eG*eT*eA*eG*eG*eA*eG*eA*eA*eT*e[5mC]*eG*e[5mC]*eT*eT*eT*eG*eG*eG*eA*eG*e[5mC]*eA)
30 nM FC (GRN mRNA) [3]: 1.3 FC
60 nM FC (GRN mRNA) [3]: 1.3 FC
120 nM FC (GRN mRNA) [3]: 1.5 FC

CO-4611: ASO designed to target intergenic enhancers (eRNA) (antisense eT*eA*eT*eT*eA*eA*eT*e[5mC]*e[5mC]*eA*e[5mC]*eG*e[5mC]*eT*eG*eT*e[5mC]*e[5mC]*e[5mC]*eA)
hit identification (GRN mRNA dose escalation) (48 hours): initial hits
hGRN mRNA FC (normalized to CO-1589): 1.4 FC
3.75 nM FC (GRN mRNA) [1]: 1.1 FC
7.5 nM FC (GRN mRNA) [1]: 1.1 FC
15 nM FC (GRN mRNA) [1]: 1.1 FC
30 nM FC (GRN mRNA) [1]: 1.1 FC
60 nM FC (GRN mRNA) [1]: 1.1 FC
120 nM FC (GRN mRNA) [1]: 1.3 FC

CO-6420: ASO based on parent ASOs CO-4363 and CO-4364 (eG*eG*lA*e[5mC]*eT*lT*eG*eG*lG*eA*eG*lT*eG*eG*lT*eG*eA*l[5mC]*eT*eG*lA*eA*e[5mC])
30 nM FC (GRN mRNA) [4]: 1.4 FC
60 nM FC (GRN mRNA) [4]: 2.7 FC
120 nM FC (GRN mRNA) [4]: 2.2 FC

CO-6384: ASO based on parent ASO CO-3462 (antisense eG*eT*eA*eG*eG*eA*eG*eA*eA*eT*e[5mC]*eG*e[5mC]*eT*eT*eT*eG*eG*eG*eA)
30 nM FC (GRN mRNA) [3]: 1.0 FC
60 nM FC (GRN mRNA) [3]: 1.0 FC
120 nM FC (GRN mRNA) [3]: 1.5 FC

CO-6412: ASO based on parent ASOs CO-4363 and CO-4364 (antisense eG*eG*eA*e[5mC]*eT*dT*dG*dG*dG*dA*dG*dT*dG*dG*dT*dG*eA*e[5mC]*eT*eG*eA)
30 nM FC (GRN mRNA) [4]: 1.0 FC
60 nM FC (GRN mRNA) [4]: 0.8 FC
120 nM FC (GRN mRNA) [4]: 0.9 FC

CO-4591: ASO designed to target intergenic enhancers (eRNA) (antisense eG*eA*eT*eA*eG*eT*eT*eG*eG*e[5mC]*e[5mC]*e[5mC]*e[5mC]*eT*e[5mC]*eG*eG*eA*eG*eT)
hGRN mRNA FC (normalized to CO-1589): 1.1 FC

CO-4360: LNA/PS modified ASO based on CO-3423 (antisense eG*eG*eA*e[5mC]*lT*eT*eG*eG*eG*lA*eG*eT*eG*eG*lT*eG*eA*e[5mC]*eT*eG)
30 nM FC (GRN mRNA) [5]: 1.4 FC
60 nM FC (GRN mRNA) [5]: 1.8 FC
120 nM FC (GRN mRNA) [5]: 2.5 FC

CO-5289: ASO based on CO-3463 incorporating additional LNA modifications (antisense GGATAGGATAGGAGCGAGCC; LNA/MOE mixmer, PS backbone, 5-methylcytosine; listed as RNA; modified_base 1..20: mod_base = OTHER; note = Phosphorothioate linkage; modified_base 1..2: mod_base = OTHER; note = locked nucleic acid; modified_base 3: mod_base = OTHER; note = 2'-O-(2-methoxyethyl) ribonucleotide; modified_base 4: mod_base)
GRN mRNA upregulation as compared to control ASO CO-1589 (Table 8 series): 2 fold
7.5 nM FC (GRN mRNA) [6]: 1.4 FC
13 nM FC (GRN mRNA) (Table 8, 13 nM, normalized to CO-1589 (sNTC1)): 1.4 FC
30 nM FC (GRN mRNA) [6]: 1.5 FC
60 nM FC (GRN mRNA) [6]: 1.9 FC
120 nM FC (GRN mRNA) [6]: 1.9 FC
150 nM FC (GRN mRNA) (Table 8, 150 nM, normalized to CO-1589 (sNTC1)): 1.9 FC
